Assay results as given in patent US7138361B2, “Herbicidal heterocycles” (E. I. du Pont de Nemours and Company, priority 2000, dated 2006).

Key:
Type in all cases: in vivo
[1] = test system: giant foxtail (Setaria viridis); assay: Test A preemergence, soil drench; details: approx. eleven days
Description: (§1) Seeds of barnyardgrass (Echinochloa crus-galli), crabgrass (Digitaria spp.), giant foxtail (Setaria viridis), morning glory (Ipomoea spp.), redroot pigweed (Amaranthus retroflexus) and velvetleaf (Abutilon theophrasti) were planted into a sandy loam soil and treated preemergence by soil drench with test chemicals formulated in a non-phytotoxic solvent mixture which included a surfactant. At the same time, these crop and weed species were also treated postemergence sprayed to runoff with test chemicals formulated in the same manner. Plants ranged in height from two to eighteen cm and were in the one- to two-leaf stage for the postemergence treatment. Treated plants and untreated controls were maintained in a greenhouse for approximately eleven days, after which time all treated plants were compared to untreated controls and visually evaluated for injury. Plant response ratings, summarized in Table A, are based on a 0 to 10 scale where 0 is no effect and 10 is complete control. A dash (-) response means no test results.

[2] = test system: crabgrass (Digitaria spp.); assay: Test A preemergence, soil drench; details: approx. eleven days
Description: as §1

[3] = test system: morning glory (Ipomoea spp.); assay: Test A preemergence, soil drench; details: Morningglory, approx. eleven days
Description: as §1

[4] = test system: barnyardgrass (Echinochloa crus-galli); assay: Test A preemergence, soil drench; details: approx. eleven days
Description: as §1

[5] = test system: redroot pigweed (Amaranthus retroflexus); assay: Test A preemergence, soil drench; details: approx. eleven days
Description: as §1

[6] = test system: velvetleaf (Abutilon theophrasti); assay: Test A preemergence, soil drench; details: approx. eleven days
Description: as §1

[7] = test system: morning glory (Ipomoea spp.); assay: Test A postemergence, sprayed to runoff; set-up: scale not given here; details: Morningglory, approx. eleven days
Description: as §1

[8] = test system: velvetleaf (Abutilon theophrasti); assay: Test A postemergence, sprayed to runoff; set-up: scale not given here; details: approx. eleven days
Description: as §1

[9] = test system: giant foxtail (Setaria viridis); assay: Test A postemergence, sprayed to runoff; details: approx. eleven days
Description: as §1

[10] = test system: crabgrass (Digitaria spp.); assay: Test A postemergence, sprayed to runoff; details: approx. eleven days
Description: as §1

[11] = test system: barnyardgrass (Echinochloa crus-galli); assay: Test A postemergence, sprayed to runoff; details: approx. eleven days
Description: as §1

[12] = test system: redroot pigweed (Amaranthus retroflexus); assay: Test A postemergence, sprayed to runoff; details: approx. eleven days
Description: as §1

[13] = test system: duck salad (Heteranthera limosa); assay: Test C flooded paddy test; details: for Ducksalad plant response rating: scale 0 to 100, 0 no effect, 100 complete control
Summary of the method: (§2)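 Visual ratings (0 = no effect, 100 = complete control) were made 12–14 days after treatment, relative to greenhouse controls. Plants in the flooded paddy test were rice, smallflower flatsedge, duck salad and barnyardgrass, treated at the 2-leaf stage.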

[14] = test system: smallflower flatsedge (Cyperus difformis); assay: Test C flooded paddy test; details: for Flatsedge plant response rating: Flooded Paddy, scale 0 to 100, 0 no effect, 100 complete control; for Plant response rating, Flatsedge: flooded paddy test, scale 0 to 100 (0 no effect, 100 complete control)
Summary of the method: as §2

[15] = test system: duck salad (Heteranthera limosa); assay: Test B flooded paddy test; details: Rate 1000 g/ha, scale of 0 to 100 where 0 is no effect and 100 is complete control, visually evaluated after 13 to 15 days
Summary of the method: (§3)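 Visual injury score on a 0–100 scale, where 100 means complete control, assigned against untreated controls 13 to 15 days after plants at the 2-leaf stage were treated under flooded paddy conditions.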

[16] = test system: barnyardgrass (Echinochloa crus-galli); assay: Test B flooded paddy test; details: Rate 1000 g/ha, scale of 0 to 100 where 0 is no effect and 100 is complete control, visually evaluated after 13 to 15 days
Summary of the method: as §3

[17] = test system: smallflower flatsedge (Cyperus difformis); assay: Test B flooded paddy test; details: Rate 1000 g/ha, scale of 0 to 100 where 0 is no effect and 100 is complete control, visually evaluated after 13 to 15 days
Summary of the method: as §3

[18] = test system: rice (Oryza saliva); assay: Test B flooded paddy test; details: Rate 1000 g/ha, scale of 0 to 100 where 0 is no effect and 100 is complete control, visually evaluated after 13 to 15 days
Summary of the method: as §3

[19] = test system: Sunflower; assay: Test C preemergence; details: Rate 62 g/ha, scale 0 to 100
[20] = flooded paddy test, Rate 62 g/ha, scale 0 to 100 (0 no effect, 100 complete control)
[21] = flooded paddy test, Rate 125 g/ha, scale 0 to 100 (0 no effect, 100 complete control)

Row | Structure (SMILES) | Plant response rating (visual injury vs untreated controls) ([1]; Rate 500 g/ha) | Plant response rating (visual injury vs untreated controls) ([1]; Rate 2000 g/ha) | Plant response rating (visual injury vs untreated controls) ([2]; Rate 500 g/ha) | Plant response rating (visual injury vs untreated controls) ([2]; Rate 2000 g/ha) | Plant response rating (visual injury vs untreated controls) ([3]; Rate 500 g/ha) | Plant response rating (visual injury vs untreated controls) ([3]; Rate 2000 g/ha) | Plant response rating (visual injury vs untreated controls) ([4]; Rate 500 g/ha) | Plant response rating (visual injury vs untreated controls) ([4]; Rate 2000 g/ha) | Plant response rating (visual injury vs untreated controls) ([5]; Rate 500 g/ha) | Plant response rating (visual injury vs untreated controls) ([5]; Rate 2000 g/ha) | Plant response rating (visual injury vs untreated controls) ([6]; Rate 500 g/ha) | Plant response rating (visual injury vs untreated controls) ([6]; Rate 2000 g/ha) | Plant response rating (visual injury vs untreated controls) ([7]; Rate 500 g/ha) | Plant response rating (visual injury vs untreated controls) ([7]; Rate 2000 g/ha) | Plant response rating (visual injury vs untreated controls) ([8]; Rate 500 g/ha) | Plant response rating (visual injury vs untreated controls) ([8]; Rate 2000 g/ha) | Plant response rating (visual injury vs untreated controls) ([9]; Rate 500 g/ha) | Plant response rating (visual injury vs untreated controls) ([9]; Rate 2000 g/ha) | Plant response rating (visual injury vs untreated controls) ([10]; Rate 500 g/ha) | Plant response rating (visual injury vs untreated controls) ([10]; Rate 2000 g/ha) | other results
1 | CC(C)(C)c1ccn(C2SCN(c3cccc(C(F)(F)F)c3)C2=O)n1 (centres unmarked) [Compound 1] | 90 | 100 | 90 | 100 | 10 | 80 | 90 | 100 | 100 | 100 | 10 | 70 | 90 | 90 | 10 | 30 | 30 | 30 | 10 | 10 | Plant response rating (visual injury vs untreated controls) ([11]; Rate 500 g/ha): 60; Plant response rating (visual injury vs untreated controls) ([11]; Rate 2000 g/ha): 90; Plant response rating (visual injury vs untreated controls) ([12]; Rate 500 g/ha): 20; Plant response rating (visual injury vs untreated controls) ([12]; Rate 2000 g/ha): 90; Plant response rating, Ducksalad ([13]; Flooded Paddy, Rate 500 g/ha, scale 0 to 100): 100; Ducksalad plant response rating ([13]; Flooded Paddy, Rate 250 g/ha): 90; Plant response rating, Ducksalad [13, 20]: 60; Plant response rating, Ducksalad [13, 21]: 90; Flatsedge plant response rating ([14]; Rate 250 g/ha): 100; Flatsedge plant response rating ([14]; Rate 500 g/ha): 100; Plant response rating, Flatsedge ([14]; Rate 62 g/ha): 90; Plant response rating, Flatsedge ([14]; Rate 125 g/ha): 100
2 | O=C1C(n2cc(Cl)c(C3CC3)n2)CCN1c1cccc(C(F)(F)F)c1 (centres unmarked) [Compound 12] | 0 | 30 | 0 | 60 | 0 | 0 | 0 | 0 | 0 | 40 | 0 | 0 | 0 | 0 | 0 | 0 | 0 | 0 | 0 | 0 | Plant response rating (visual injury vs untreated controls) ([11]; Rate 500 g/ha): 0; Plant response rating (visual injury vs untreated controls) ([11]; Rate 2000 g/ha): 0; Plant response rating (visual injury vs untreated controls) ([12]; Rate 500 g/ha): 0; Plant response rating (visual injury vs untreated controls) ([12]; Rate 2000 g/ha): 0; Plant response rating, Ducksalad [15]: 0; Plant response rating, Barnyardgrass [16]: 0; Plant response rating, Flatsedge [17]: 30; Plant response rating, Rice [18]: 0
3 | CCC(C)c1nn(C2CCN(c3cccc(C(F)(F)F)c3)C2=O)cc1Cl (centres unmarked) [Compound 13] | 20 | 90 | 0 | 80 | 0 | 20 | 0 | 10 | 80 | 100 | 0 | 0 | 0 | 0 | 0 | 0 | 0 | 0 | 0 | 0 | Plant response rating (visual injury vs untreated controls) ([11]; Rate 500 g/ha): 0; Plant response rating (visual injury vs untreated controls) ([11]; Rate 2000 g/ha): 0; Plant response rating (visual injury vs untreated controls) ([12]; Rate 500 g/ha): 20; Plant response rating (visual injury vs untreated controls) ([12]; Rate 2000 g/ha): 70; Plant response rating, Ducksalad [15]: 0; Plant response rating, Barnyardgrass [16]: 0; Plant response rating, Flatsedge [17]: 0; Plant response rating, Rice [18]: 0
4 | CC(C)(C)c1nn(C2CCN(c3cccc(C(F)(F)F)c3)C2=O)cc1Cl (centres unmarked) [Compound 14] | 0 | 0 | 0 | 0 | 0 | 0 | 0 | 0 | 40 | 70 | 0 | 0 | 0 | 0 | 0 | 0 | 0 | 0 | 0 | 0 | Plant response rating (visual injury vs untreated controls) ([11]; Rate 500 g/ha): 0; Plant response rating (visual injury vs untreated controls) ([11]; Rate 2000 g/ha): 0; Plant response rating (visual injury vs untreated controls) ([12]; Rate 500 g/ha): 0; Plant response rating (visual injury vs untreated controls) ([12]; Rate 2000 g/ha): 20; Plant response rating, Ducksalad [15]: 0; Plant response rating, Barnyardgrass [16]: 0; Plant response rating, Flatsedge [17]: 0; Plant response rating, Rice [18]: 0
5 | CC(C)(C)c1ccn(C2CCN(c3cccc(I)c3)C2=O)n1 (centres unmarked) [Compound 88] | 70 | 100 | 80 | 100 | 0 | 30 | 40 | 100 | 100 | 100 | 0 | 30 | 10 | 30 | 0 | 0 | 40 | 90 | 20 | 40 | Plant response rating (visual injury vs untreated controls) ([11]; Rate 500 g/ha): 30; Plant response rating (visual injury vs untreated controls) ([11]; Rate 2000 g/ha): 80; Plant response rating (visual injury vs untreated controls) ([12]; Rate 500 g/ha): 80; Plant response rating (visual injury vs untreated controls) ([12]; Rate 2000 g/ha): 100; Plant response rating, Sunflower [19]: 10; Ducksalad plant response rating ([13]; Flooded Paddy, Rate 250 g/ha): 60; Ducksalad plant response rating ([13]; Flooded Paddy, Rate 500 g/ha): 60; Plant response rating, Ducksalad [13, 20]: 0; Plant response rating, Ducksalad [13, 21]: 10; Flatsedge plant response rating ([14]; Rate 250 g/ha): 100; Flatsedge plant response rating ([14]; Rate 500 g/ha): 100; Plant response rating, Flatsedge ([14]; Rate 62 g/ha): 90; Plant response rating, Flatsedge ([14]; Rate 125 g/ha): 90
